Results on three molecules are retold here after ChEMBL document CHEMBL3991601, “The target landscape of clinical kinase drugs” (Science, 2017).

Experiment [1] concerns the target Cyclin-dependent kinase 2 (Homo sapiens, UniProt P24941).
Experiment [2] has as its target Tyrosine-protein kinase Lyn (Homo sapiens, UniProt P07948).
Experiment [3] deals with cAMP-dependent protein kinase catalytic subunit gamma (Homo sapiens, UniProt P22612).
Experiment [4] addresses Mitogen-activated protein kinase kinase kinase kinase 5 (Homo sapiens, UniProt Q9Y4K4).
Experiment [5] has as its target T1, Glycogen phosphorylase, liver form (Homo sapiens, UniProt P06737).
T1 sequence (P06737 whole entry): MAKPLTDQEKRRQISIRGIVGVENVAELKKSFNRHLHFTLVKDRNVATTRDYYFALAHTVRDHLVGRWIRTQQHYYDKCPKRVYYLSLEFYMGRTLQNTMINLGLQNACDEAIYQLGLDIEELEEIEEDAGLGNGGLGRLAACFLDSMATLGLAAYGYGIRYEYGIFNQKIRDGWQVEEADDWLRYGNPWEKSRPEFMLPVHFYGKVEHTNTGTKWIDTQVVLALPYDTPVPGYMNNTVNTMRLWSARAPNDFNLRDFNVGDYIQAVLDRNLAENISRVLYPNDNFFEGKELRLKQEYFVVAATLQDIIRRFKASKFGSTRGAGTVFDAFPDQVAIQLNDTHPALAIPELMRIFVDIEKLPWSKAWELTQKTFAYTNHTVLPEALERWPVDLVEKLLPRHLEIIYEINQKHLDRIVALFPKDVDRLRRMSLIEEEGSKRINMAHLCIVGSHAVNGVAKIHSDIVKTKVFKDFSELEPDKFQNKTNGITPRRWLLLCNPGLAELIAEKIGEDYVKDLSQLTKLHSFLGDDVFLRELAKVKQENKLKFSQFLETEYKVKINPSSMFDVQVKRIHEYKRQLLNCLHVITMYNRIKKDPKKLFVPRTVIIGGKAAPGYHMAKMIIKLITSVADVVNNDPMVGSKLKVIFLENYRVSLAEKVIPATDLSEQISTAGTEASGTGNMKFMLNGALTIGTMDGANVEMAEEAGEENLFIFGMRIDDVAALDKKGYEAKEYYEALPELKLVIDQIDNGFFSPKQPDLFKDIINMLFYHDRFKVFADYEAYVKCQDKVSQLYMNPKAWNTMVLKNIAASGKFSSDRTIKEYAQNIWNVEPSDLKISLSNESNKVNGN
It is filed as subcellular, K-562, COLO 205, SK-N-BE(2) and MV-4-11, Cell lysate. As to conditions: read-out: Kd apparent.

Experiment [6] concerns the target Platelet-derived growth factor receptor beta (Homo sapiens, UniProt P09619).
The target in experiment [7] is Bone morphogenetic protein receptor type-1B (Homo sapiens, UniProt O00238).
Experiment [8] deals with Ephrin type-A receptor 5 (Homo sapiens, UniProt P54756).
Ephrin type-A receptor 5, sequence (P54756 whole entry): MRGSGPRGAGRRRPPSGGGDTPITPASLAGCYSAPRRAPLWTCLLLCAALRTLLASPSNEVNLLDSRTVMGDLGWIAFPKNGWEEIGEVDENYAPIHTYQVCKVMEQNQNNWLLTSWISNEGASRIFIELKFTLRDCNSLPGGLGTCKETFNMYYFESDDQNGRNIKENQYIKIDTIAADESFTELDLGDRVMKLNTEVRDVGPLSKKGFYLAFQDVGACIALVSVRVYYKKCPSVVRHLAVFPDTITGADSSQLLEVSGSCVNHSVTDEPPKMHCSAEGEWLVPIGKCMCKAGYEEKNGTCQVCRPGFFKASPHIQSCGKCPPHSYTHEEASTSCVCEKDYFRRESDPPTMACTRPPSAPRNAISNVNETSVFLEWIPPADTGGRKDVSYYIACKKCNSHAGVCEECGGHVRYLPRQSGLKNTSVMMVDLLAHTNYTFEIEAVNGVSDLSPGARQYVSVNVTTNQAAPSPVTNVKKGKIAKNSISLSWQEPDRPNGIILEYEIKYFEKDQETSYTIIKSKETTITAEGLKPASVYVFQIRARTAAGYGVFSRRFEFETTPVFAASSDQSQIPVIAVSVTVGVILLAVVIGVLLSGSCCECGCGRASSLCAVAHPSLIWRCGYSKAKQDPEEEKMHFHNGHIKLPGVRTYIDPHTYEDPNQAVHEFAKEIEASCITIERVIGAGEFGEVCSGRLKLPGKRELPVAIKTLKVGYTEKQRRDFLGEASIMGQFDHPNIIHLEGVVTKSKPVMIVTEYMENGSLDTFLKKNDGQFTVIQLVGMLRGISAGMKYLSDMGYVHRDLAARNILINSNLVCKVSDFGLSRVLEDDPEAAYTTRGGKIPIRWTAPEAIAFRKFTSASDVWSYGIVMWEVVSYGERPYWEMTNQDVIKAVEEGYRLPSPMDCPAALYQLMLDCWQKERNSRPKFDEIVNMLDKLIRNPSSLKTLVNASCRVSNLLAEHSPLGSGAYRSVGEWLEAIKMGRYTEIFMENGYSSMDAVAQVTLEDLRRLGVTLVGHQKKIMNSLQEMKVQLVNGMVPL
For experiment [9], the target named is DnaJ homolog subfamily A member 1 (Homo sapiens, UniProt P31689).
In experiment [10] the target is Serine/threonine-protein kinase SIK2 (Homo sapiens, UniProt Q9H0K1).
Serine/threonine-protein kinase SIK2, sequence (Q9H0K1 whole entry): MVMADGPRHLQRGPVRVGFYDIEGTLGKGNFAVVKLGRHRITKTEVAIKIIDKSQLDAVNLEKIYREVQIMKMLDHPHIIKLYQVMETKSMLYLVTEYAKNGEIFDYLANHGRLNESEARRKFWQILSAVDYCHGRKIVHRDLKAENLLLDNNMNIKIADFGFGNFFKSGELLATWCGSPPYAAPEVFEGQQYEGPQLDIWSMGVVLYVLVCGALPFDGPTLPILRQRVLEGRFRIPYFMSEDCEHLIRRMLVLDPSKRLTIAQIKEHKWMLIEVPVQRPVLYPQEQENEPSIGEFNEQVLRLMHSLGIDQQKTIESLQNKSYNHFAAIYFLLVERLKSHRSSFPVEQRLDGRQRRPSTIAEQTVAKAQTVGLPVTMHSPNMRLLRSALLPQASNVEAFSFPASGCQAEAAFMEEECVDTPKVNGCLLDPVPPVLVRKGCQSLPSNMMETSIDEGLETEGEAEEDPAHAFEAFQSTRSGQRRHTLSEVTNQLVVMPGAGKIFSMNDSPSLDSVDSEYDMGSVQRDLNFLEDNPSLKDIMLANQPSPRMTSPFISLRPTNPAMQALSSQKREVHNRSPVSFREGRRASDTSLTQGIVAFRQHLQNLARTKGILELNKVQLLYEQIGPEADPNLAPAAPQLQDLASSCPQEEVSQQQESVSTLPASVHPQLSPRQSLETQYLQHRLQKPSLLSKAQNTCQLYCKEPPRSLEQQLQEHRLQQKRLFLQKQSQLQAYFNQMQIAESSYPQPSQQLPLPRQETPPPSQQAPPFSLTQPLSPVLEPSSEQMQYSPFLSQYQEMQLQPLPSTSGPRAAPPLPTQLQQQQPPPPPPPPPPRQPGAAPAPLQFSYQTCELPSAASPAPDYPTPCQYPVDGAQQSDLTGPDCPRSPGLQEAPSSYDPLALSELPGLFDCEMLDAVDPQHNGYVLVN
The target in experiment [11] is Deoxycytidine kinase (Homo sapiens, UniProt P27707).
Experiment [12] has as its target Mitogen-activated protein kinase 14 (Homo sapiens, UniProt Q16539).
Experiment [13] concerns the target Dual specificity testis-specific protein kinase 1 (Homo sapiens, UniProt Q15569).
Experiment [14] concerns the target Receptor-interacting serine/threonine-protein kinase 2 (Homo sapiens, UniProt O43353).
Experiment [15] deals with T2, Ras-related protein Rab-10 (Homo sapiens, UniProt P61026).
T2 sequence (P61026 whole entry): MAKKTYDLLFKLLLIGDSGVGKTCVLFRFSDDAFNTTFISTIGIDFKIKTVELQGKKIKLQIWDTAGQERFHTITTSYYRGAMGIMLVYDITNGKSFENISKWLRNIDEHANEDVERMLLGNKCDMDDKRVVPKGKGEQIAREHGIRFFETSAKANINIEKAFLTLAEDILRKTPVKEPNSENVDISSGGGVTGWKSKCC

Experiment [16] has as its target T3, Dual specificity mitogen-activated protein kinase kinase 5 (Homo sapiens, UniProt Q13163).
T3 sequence (Q13163 whole entry): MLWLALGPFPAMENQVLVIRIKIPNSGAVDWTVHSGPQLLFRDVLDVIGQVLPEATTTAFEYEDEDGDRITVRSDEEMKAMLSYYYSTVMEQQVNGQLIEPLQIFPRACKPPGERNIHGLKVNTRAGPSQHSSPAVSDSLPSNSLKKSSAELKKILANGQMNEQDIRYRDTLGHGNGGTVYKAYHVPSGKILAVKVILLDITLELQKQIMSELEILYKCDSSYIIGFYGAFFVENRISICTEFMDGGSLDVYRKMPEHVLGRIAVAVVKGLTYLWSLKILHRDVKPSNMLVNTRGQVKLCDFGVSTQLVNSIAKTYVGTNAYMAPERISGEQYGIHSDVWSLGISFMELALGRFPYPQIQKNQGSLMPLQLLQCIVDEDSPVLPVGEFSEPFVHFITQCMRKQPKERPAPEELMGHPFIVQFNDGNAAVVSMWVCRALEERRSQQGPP

Experiment [17] has as its target Non-receptor tyrosine-protein kinase TYK2 (Homo sapiens, UniProt P29597).

Each structure is given as a SMILES string. The source made the active and inactive calls. Cut-off read from the data, not from the text of the source, for most assays here: actives have a measured Kd and inactives only a lower limit. Some results are limits rather than exact numbers.
Note: in the data inactive means no Kd found up to 30 µM.

Receptor-interacting serine/threonine-protein kinase 2, sequence (O43353 whole entry): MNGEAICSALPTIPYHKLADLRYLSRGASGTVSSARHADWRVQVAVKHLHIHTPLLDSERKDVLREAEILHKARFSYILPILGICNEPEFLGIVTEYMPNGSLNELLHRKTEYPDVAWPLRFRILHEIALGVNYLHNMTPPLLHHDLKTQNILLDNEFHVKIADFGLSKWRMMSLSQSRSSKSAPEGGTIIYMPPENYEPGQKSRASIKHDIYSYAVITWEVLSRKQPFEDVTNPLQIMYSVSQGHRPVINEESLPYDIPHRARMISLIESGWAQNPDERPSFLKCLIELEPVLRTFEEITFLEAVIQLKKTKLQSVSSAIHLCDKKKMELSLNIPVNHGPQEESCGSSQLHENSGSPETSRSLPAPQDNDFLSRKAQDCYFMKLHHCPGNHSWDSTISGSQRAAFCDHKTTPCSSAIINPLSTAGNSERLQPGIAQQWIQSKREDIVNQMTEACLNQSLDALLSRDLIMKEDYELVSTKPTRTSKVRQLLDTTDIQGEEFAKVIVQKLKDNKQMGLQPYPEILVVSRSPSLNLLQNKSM
Mitogen-activated protein kinase 14, sequence (Q16539 whole entry): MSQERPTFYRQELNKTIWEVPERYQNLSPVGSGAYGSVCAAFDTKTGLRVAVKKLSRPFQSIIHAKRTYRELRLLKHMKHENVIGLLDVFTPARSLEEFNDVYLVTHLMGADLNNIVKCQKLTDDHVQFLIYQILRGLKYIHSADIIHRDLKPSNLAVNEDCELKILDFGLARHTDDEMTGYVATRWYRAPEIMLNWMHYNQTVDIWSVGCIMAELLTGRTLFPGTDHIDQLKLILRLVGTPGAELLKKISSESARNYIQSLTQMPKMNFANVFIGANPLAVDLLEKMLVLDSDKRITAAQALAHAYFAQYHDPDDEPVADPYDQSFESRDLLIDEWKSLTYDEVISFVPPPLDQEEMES
cAMP-dependent protein kinase catalytic subunit gamma, sequence (P22612 whole entry): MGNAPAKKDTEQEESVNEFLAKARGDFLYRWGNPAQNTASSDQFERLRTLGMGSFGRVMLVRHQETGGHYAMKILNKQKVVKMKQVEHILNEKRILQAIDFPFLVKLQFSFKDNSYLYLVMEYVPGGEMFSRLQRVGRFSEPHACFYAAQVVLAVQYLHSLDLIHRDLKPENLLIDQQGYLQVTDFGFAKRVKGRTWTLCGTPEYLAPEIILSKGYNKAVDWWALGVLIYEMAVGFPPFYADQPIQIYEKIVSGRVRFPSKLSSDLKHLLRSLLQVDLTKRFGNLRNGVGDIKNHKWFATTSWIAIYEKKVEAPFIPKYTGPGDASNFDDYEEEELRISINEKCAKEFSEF
Platelet-derived growth factor receptor beta, sequence (P09619 whole entry): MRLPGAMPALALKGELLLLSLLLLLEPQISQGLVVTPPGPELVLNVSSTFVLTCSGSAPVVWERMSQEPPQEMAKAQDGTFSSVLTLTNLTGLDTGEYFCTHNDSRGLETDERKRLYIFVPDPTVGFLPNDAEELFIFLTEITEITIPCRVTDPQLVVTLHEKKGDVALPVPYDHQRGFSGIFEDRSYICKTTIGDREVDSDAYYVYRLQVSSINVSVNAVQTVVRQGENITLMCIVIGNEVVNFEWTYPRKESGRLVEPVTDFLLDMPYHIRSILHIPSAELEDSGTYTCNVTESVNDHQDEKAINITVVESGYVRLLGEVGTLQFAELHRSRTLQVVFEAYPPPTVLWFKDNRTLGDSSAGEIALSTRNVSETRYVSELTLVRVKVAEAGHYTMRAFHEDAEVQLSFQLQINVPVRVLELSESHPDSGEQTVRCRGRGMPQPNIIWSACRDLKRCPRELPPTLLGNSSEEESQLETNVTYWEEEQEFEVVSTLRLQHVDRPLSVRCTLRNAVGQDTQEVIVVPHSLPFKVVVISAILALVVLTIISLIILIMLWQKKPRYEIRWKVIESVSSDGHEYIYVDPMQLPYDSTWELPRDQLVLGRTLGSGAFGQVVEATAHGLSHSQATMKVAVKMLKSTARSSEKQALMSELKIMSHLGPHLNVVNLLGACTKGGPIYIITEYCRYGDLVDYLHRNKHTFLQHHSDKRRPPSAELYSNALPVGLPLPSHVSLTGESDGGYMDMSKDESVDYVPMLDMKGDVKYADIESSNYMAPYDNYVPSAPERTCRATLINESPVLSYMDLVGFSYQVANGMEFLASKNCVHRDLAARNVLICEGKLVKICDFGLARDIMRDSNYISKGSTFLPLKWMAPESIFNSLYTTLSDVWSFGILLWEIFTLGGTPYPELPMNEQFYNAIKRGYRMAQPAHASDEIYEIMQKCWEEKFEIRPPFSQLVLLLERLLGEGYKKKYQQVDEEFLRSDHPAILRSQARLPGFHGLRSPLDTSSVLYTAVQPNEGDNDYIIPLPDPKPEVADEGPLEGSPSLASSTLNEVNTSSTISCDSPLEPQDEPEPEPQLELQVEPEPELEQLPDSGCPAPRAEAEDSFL
Tyrosine-protein kinase Lyn, sequence (P07948 whole entry): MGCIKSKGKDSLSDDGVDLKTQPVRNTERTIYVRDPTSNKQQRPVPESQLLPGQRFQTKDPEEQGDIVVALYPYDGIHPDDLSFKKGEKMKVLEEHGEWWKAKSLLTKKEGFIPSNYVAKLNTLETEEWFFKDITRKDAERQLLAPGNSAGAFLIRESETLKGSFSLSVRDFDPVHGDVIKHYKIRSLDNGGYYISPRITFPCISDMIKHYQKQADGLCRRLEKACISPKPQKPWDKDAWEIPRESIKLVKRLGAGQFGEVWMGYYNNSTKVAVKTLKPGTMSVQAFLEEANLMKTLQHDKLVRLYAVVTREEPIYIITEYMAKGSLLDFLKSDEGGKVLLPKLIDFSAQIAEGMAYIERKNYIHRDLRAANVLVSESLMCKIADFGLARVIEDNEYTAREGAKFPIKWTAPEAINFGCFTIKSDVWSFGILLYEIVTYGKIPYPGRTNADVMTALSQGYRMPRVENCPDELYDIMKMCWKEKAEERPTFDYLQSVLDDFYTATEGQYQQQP

For `COc1cc2c(Nc3ccc(Cl)c(Cl)c3F)ncnc2cc1OC[C@@H]1C[C@@H]2CN(C)C[C@@H]2C1` [TESEVATINIB], the Kd is > 30 µM (inactive) in [1]; 1.13 µM (active) in experiment [2]; > 30 µM (inactive) in experiment [3]; 0.908 µM (active) in [4]; > 30 µM (inactive) in experiment [5]; > 30 µM (inactive) in [6]. Moreover, the Kd in experiment [7], in experiment [8], in experiment [9], in [10], in experiment [11] and in experiment [12] was > 30 µM (inactive) each time. Further, the Kd in [13] was > 30 µM (inactive); in experiment [14] it was 0.033 µM (active); in experiment [15], > 30 µM (inactive); in experiment [16], 65.7 µM (active); in experiment [17], > 30 µM (inactive).

Regarding `C[C@@H](NC(=O)c1ncnc(N)c1Cl)c1ncc(C(=O)Nc2cc(C(F)(F)F)c(Cl)cn2)s1` [TOVORAFENIB], the Kd in [1] was > 30 µM (inactive); in experiment [2], > 30 µM (inactive); in experiment [3], > 30 µM (inactive); in experiment [4], > 30 µM (inactive); in [5], > 30 µM (inactive); in [6] it was 11.1 µM (active). The Kd was > 30 µM (inactive) in experiment [7]; > 30 µM (inactive) in experiment [8]; > 30 µM (inactive) in experiment [9]; > 30 µM (inactive) in experiment [10]; > 30 µM (inactive) in [11]; 0.358 µM (active) in experiment [12]. Also, the Kd in experiment [13], in experiment [14], in experiment [15], in experiment [16] and in [17] was > 30 µM (inactive) in each case.

As for `Cc1cc(Nc2ncnc3ccc(NC4=NC(C)(C)CO4)cc23)ccc1Oc1ccn2ncnc2c1` [TUCATINIB], the Kd in experiment [1], in experiment [2], in experiment [3], in [4], in experiment [5] and in [6] was > 30 µM (inactive) throughout. In addition, the Kd in experiment [7], in experiment [8], in experiment [9], in experiment [10], in [11] and in experiment [12] was > 30 µM (inactive) each time. Further, the Kd in experiment [13], in experiment [14], in experiment [15], in experiment [16] and in [17] was > 30 µM (inactive) throughout.
